Literature values as cited in patent US7232435B2, “Delivery of a sympatholytic cardiovascular agent to the central nervous system to counter heart failure and pathologies associated with heart failure” (Medtronic, Inc., priority 2004, dated 2007).
Structures can show the parent of a compound that is named as a salt.

Tests used:
[1] = bolus intravenous injection
[2] = oral or transdermal
[3] = intrathecal delivery

| SMILES | autonomic effects (sympathetic outflow, vagal tone, baroreceptor reflex sensitivity) [1] | hemodynamic effects (heart rate, preload, afterload, pulmonary artery and right atrial pressure) [1] | time of peak effects [1] [min] | major side effects [2] | undesirable side effects [3] |
| --- | --- | --- | --- | --- | --- |
| Clc1cccc(Cl)c1N=C1NCCN1 [clonidine HCl] | decreased sympathetic outflow, increased vagal tone and sensitivity of the baroreceptor reflex | Reductions were observed in heart rate, left ventricular filling pressure (preload), mean systemic arterial pressure (afterload), mean pulmonary artery pressure and right atrial pressure | 5 to 20 |  |  |
| Clc1cccc(Cl)c1N=C1NCCN1 [clonidine, 2-[(2,6-dichlorophenyl)amino]-2-imidazoline] |  |  |  | sedation and dry mouth | Abnormally low blood pressure (hypotension) and bradycardia |
